From ChEMBL document CHEMBL3352436, “DDD-028: a potent potential non-opioid, non-cannabinoid analgesic for neuropathic and inflammatory pain” (Bioorg Med Chem Lett, 2014)
Calls of active or inactive are those of the source.

Assays:
[1] = tested on: Rattus norvegicus; assay: Antinociceptive activity in spinal nerve ligation CD rat model of neuropathic pain assessed as inhibition of mechanical allodynia measured as time required for maximal effect at 39 mg/kg, po; assay type: functional
[2] = tested on: Rattus norvegicus; assay: Antinociceptive activity in spinal nerve ligation CD rat model of neuropathic pain assessed as inhibition of mechanical allodynia measured as paw withdrawal threshold at 39 mg/kg, po up to 15 mins; assay type: functional, organism-based; parameters: dose 39 mg/kg
[3] = AUC (0 to infinity) in CD rat at 27 mg/kg, iv; assay type: ADME, organism-based; parameters: time infinity, dose 27 mg/kg, route intravenous; settings: plasma
[4] = tested on: Rattus norvegicus; assay: Toxicity in Complete Freund's adjuvant-induced inflammatory pain CD rat model assessed as sedation at 30 mg/kg, po measured at 2 hrs post dose; assay type: organism-based; parameters: dose 30 mg/kg, route oral; settings: in vivo
[5] = tested on: Rattus norvegicus; assay: Antinociceptive activity in Complete Freund's adjuvant-induced inflammatory pain CD rat model assessed as mechanical hypersensitivity measured as weight bearing capacity at 30 mg/kg, po measured up to 15 mins relative to control; assay type: functional, organism-based; parameters: dose 30 mg/kg
[6] = Half life in CD rat at 27 mg/kg, iv; assay type: ADME, organism-based; parameters: dose 27 mg/kg, route intravenous; settings: in vivo
[7] = Cmax in CD rat at 27 mg/kg, iv; assay type: ADME, organism-based; parameters: dose 27 mg/kg, route intravenous; settings: in vivo
[8] = tested on: Rattus norvegicus; assay: Antinociceptive activity in Complete Freund's adjuvant-induced inflammatory pain CD rat model assessed as time required for maximal effect at 30 mg/kg, po relative to control; assay type: functional
[9] = tested on: Rattus norvegicus; assay: Antinociceptive activity in Complete Freund's adjuvant-induced inflammatory pain CD rat model assessed as mechanical hypersensitivity measured as weight bearing capacity at 30 mg/kg, po measured after 15 to 120 mins relative to control; assay type: functional, organism-based; parameters: dose 30 mg/kg
[10] = AUC (0 to t) in CD rat at 27 mg/kg, iv; assay type: ADME, organism-based; parameters: dose 27 mg/kg, route intravenous; settings: plasma
[11] = Elimination rate constant in CD rat at 27 mg/kg, iv; assay type: ADME, organism-based; parameters: dose 27 mg/kg, route intravenous; settings: in vivo
[12] = Tmax in CD rat at 27 mg/kg, iv; assay type: ADME, organism-based; parameters: dose 27 mg/kg, route intravenous; settings: in vivo
[13] = Binding affinity to strychnine-insensitive glycine receptor (unknown origin); parameters: species or system Homo sapiens
[14] = biological target: Somatostatin receptor type 2 (Homo sapiens, UniProt P30874); assay: Binding affinity to SST2 receptor (unknown origin)
[15] = biological target: Transient receptor potential cation channel subfamily V member 1 (Homo sapiens, UniProt Q8NER1); assay: Binding affinity to TRPV1 (unknown origin)
[16] = biological target: T1, Adenosine receptor A1 (Homo sapiens, UniProt P30542); assay: Binding affinity to adenosine A1 receptor (unknown origin)
T1 sequence (P30542 whole entry): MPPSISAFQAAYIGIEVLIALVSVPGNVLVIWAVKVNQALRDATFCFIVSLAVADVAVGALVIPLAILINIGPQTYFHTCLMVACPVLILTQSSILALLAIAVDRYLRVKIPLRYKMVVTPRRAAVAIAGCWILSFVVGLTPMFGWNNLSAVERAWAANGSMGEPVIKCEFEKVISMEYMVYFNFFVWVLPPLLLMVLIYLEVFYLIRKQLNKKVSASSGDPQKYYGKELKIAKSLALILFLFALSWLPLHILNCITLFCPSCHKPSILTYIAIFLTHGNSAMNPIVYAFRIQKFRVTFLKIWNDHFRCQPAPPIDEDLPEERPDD

[17] = biological target: Cannabinoid receptor 2 (Homo sapiens, UniProt P34972); assay: Binding affinity to cannabinoid CB2 receptor (unknown origin)
[18] = tested on: Mus musculus; assay: Antinociceptive activity in sciatic nerve chronic constriction injury CD1 mouse model assessed as paw withdrawal threshold at 1.3 umol/kg administered intrathecally measured at 180 mins (reference value: 0.21 to 0.30 g); assay type: functional
[19] = tested on: Rattus norvegicus; assay: Antinociceptive activity in Complete Freund's adjuvant-induced inflammatory pain CD rat model assessed as mechanical hypersensitivity measured as weight bearing capacity at 5 mg/kg, po measured up to 15 mins relative to control; assay type: functional, organism-based; parameters: dose 5 mg/kg
[20] = tested on: Mus musculus; assay: Antinociceptive activity in sciatic nerve chronic constriction injury CD1 mouse model assessed as paw withdrawal threshold at 3.5 umol/kg, po measured at 300 mins (reference value: 0.26 to 0.37 g); assay type: functional
[21] = tested on: Mus musculus; assay: Antinociceptive activity in sciatic nerve chronic constriction injury CD1 mouse model assessed as paw withdrawal threshold at 3.5 umol/kg, po measured at 30 mins (reference value: 0.26 to 0.37 g); assay type: functional
[22] = tested on: Rattus norvegicus; assay: Antinociceptive activity in Complete Freund's adjuvant-induced inflammatory pain CD rat model assessed as mechanical hypersensitivity measured as weight bearing capacity at 5 mg/kg, po administered before challenge relative to control; assay type: functional
[23] = tested on: Rattus norvegicus; assay: Antinociceptive activity in Complete Freund's adjuvant-induced inflammatory pain CD rat model assessed as mechanical hypersensitivity measured as weight bearing capacity at 5 mg/kg, po administered 24 hrs post challenge relative to control; assay type: functional
[24] = biological target: Cannabinoid receptor 1 (Homo sapiens, UniProt P21554); assay: Binding affinity to cannabinoid CB1 receptor (unknown origin)
[25] = AUC (0 to t) in CD1 mouse at 5 mg/kg, po; assay type: ADME, organism-based; parameters: dose 5 mg/kg, route oral; settings: plasma
[26] = tested on: Mus musculus; assay: Antinociceptive activity in sciatic nerve chronic constriction injury CD1 mouse model assessed as paw withdrawal threshold at 3.5 umol/kg, po measured at 120 mins (reference value: 0.26 to 0.37 g); assay type: functional
[27] = tested on: Rattus norvegicus; assay: Toxicity in Complete Freund's adjuvant-induced inflammatory pain CD rat model assessed as sedation at 5 mg/kg, po measured at 2 hrs post dose; assay type: organism-based; parameters: dose 5 mg/kg, route oral; settings: in vivo
[28] = Binding affinity to sigma2 receptor (unknown origin); parameters: species or system Homo sapiens
[29] = tested on: Rattus norvegicus; assay: Antinociceptive activity in spinal nerve ligation CD rat model of neuropathic pain assessed as inhibition of mechanical allodynia at 39 mg/kg, po after 15 to 180 mins; assay type: functional
[30] = tested on: Rattus norvegicus; assay: Antinociceptive activity in spinal nerve ligation CD rat model of neuropathic pain assessed as inhibition of mechanical allodynia measured as time required for maximal effect at 5 mg/kg, po; assay type: functional
[31] = Tmax in CD1 mouse at 5 mg/kg, po; assay type: ADME, organism-based; parameters: dose 5 mg/kg, route oral; settings: in vivo
[32] = tested on: Mus musculus; assay: Antinociceptive activity in sciatic nerve chronic constriction injury CD1 mouse model assessed as paw withdrawal threshold at 3.5 umol/kg, po measured at 180 mins (reference value: 0.26 to 0.37 g); assay type: functional
[33] = AUC (0 to infinity) in CD1 mouse at 5 mg/kg, po; assay type: ADME, organism-based; parameters: time infinity, dose 5 mg/kg, route oral; settings: plasma
[34] = tested on: Mus musculus; assay: Antinociceptive activity in sciatic nerve chronic constriction injury CD1 mouse model assessed as paw withdrawal threshold at 1.3 umol/kg administered intrathecally measured at 60 mins (reference value: 0.21 to 0.30 g); assay type: functional
[35] = biological target: T2, Adenosine receptor A3 (Homo sapiens, UniProt P0DMS8); assay: Binding affinity to adenosine A3 receptor (unknown origin)
T2 sequence (P0DMS8 whole entry): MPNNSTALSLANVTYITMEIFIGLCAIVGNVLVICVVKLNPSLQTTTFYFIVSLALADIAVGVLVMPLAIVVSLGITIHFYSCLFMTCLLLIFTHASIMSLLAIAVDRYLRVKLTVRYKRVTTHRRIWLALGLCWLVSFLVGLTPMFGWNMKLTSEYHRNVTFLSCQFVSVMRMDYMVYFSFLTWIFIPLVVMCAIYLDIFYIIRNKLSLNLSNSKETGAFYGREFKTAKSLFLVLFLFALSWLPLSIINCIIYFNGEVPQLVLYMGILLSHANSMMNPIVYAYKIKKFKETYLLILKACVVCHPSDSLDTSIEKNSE

[36] = tested on: Rattus norvegicus; assay: Antinociceptive activity in Complete Freund's adjuvant-induced inflammatory pain CD rat model assessed as time required for maximal effect at 5 mg/kg, po relative to control; assay type: functional
[37] = biological target: Somatostatin receptor type 4 (Homo sapiens, UniProt P31391); assay: Binding affinity to SST4 receptor (unknown origin)
[38] = Binding affinity to strychnine-sensitive glycine receptor (unknown origin); parameters: species or system Homo sapiens
[39] = biological target: Adenosine receptor A2a (Homo sapiens, UniProt P29274); assay: Binding affinity to adenosine A2A receptor (unknown origin)
[40] = Half life in CD1 mouse at 5 mg/kg, po; assay type: ADME, organism-based; parameters: dose 5 mg/kg, route oral; settings: in vivo
[41] = tested on: Rattus norvegicus; assay: Antinociceptive activity in spinal nerve ligation CD rat model of neuropathic pain assessed as inhibition of mechanical allodynia measured as paw withdrawal threshold at 5 mg/kg, po after 15 to 180 mins relative to pregabalin; assay type: functional
[42] = Binding affinity to […] AMPA receptor (unknown origin); parameters: species or system Homo sapiens
[43] = tested on: Mus musculus; assay: Antinociceptive activity in sciatic nerve chronic constriction injury CD1 mouse model assessed as paw withdrawal threshold at 1.3 umol/kg administered intrathecally measured at 120 mins (reference value: 0.21 to 0.30 g); assay type: functional
[44] = tested on: Mus musculus; assay: Antinociceptive activity in sciatic nerve chronic constriction injury CD1 mouse model assessed as paw withdrawal threshold at 3.5 umol/kg, po measured at 60 mins (reference value: 0.26 to 0.37 g); assay type: functional
[45] = Cmax in CD1 mouse at 5 mg/kg, po; assay type: ADME, organism-based; parameters: dose 5 mg/kg, route oral; settings: in vivo
[46] = tested on: Rattus norvegicus; assay: Antinociceptive activity in Complete Freund's adjuvant-induced inflammatory pain CD rat model assessed as mechanical hypersensitivity measured as weight bearing capacity at 5 mg/kg, po measured after 15 to 120 mins relative to indomethacin; assay type: functional
[47] = tested on: Mus musculus; assay: Antinociceptive activity in sciatic nerve chronic constriction injury CD1 mouse model assessed as paw withdrawal threshold at 1.3 umol/kg administered intrathecally measured at 30 mins (reference value: 0.21 to 0.30 g); assay type: functional
[48] = tested on: Rattus norvegicus; assay: Antinociceptive activity in Complete Freund's adjuvant-induced inflammatory pain CD rat model assessed as mechanical hypersensitivity measured as weight bearing capacity at 5 mg/kg, po measured after 15 to 120 mins relative to control; assay type: functional
[49] = Elimination rate constant in CD1 mouse at 5 mg/kg, po; assay type: ADME, organism-based; parameters: dose 5 mg/kg, route oral; settings: in vivo
[50] = tested on: Mus musculus; assay: Antinociceptive activity in sciatic nerve chronic constriction injury CD1 mouse model assessed as paw withdrawal threshold at 1.3 umol/kg administered intrathecally measured at 300 mins (reference value: 0.21 to 0.30 g); assay type: functional

Transient receptor potential cation channel subfamily V member 1, sequence (Q8NER1 whole entry): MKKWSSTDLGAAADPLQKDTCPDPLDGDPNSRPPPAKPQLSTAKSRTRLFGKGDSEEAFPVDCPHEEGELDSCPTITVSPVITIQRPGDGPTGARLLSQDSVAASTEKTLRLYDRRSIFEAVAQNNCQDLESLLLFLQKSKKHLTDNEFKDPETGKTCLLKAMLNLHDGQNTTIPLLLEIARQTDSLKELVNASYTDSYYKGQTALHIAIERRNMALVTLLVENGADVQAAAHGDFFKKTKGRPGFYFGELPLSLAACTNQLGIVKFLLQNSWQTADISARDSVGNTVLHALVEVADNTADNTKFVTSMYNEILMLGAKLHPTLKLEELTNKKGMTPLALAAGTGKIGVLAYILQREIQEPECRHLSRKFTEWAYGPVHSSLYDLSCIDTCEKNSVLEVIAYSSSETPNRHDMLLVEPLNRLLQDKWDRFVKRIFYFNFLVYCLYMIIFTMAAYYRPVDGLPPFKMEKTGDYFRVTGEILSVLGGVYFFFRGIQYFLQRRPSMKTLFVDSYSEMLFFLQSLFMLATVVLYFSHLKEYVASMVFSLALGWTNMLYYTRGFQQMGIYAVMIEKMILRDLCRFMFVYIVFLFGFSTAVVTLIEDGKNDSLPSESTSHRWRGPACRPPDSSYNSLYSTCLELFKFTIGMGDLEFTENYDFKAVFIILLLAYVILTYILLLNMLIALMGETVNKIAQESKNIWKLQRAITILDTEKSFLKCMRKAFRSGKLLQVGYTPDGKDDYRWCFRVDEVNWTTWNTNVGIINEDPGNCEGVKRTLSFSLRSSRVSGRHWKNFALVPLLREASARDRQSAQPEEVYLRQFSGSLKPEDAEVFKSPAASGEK
Adenosine receptor A2a, sequence (P29274 whole entry): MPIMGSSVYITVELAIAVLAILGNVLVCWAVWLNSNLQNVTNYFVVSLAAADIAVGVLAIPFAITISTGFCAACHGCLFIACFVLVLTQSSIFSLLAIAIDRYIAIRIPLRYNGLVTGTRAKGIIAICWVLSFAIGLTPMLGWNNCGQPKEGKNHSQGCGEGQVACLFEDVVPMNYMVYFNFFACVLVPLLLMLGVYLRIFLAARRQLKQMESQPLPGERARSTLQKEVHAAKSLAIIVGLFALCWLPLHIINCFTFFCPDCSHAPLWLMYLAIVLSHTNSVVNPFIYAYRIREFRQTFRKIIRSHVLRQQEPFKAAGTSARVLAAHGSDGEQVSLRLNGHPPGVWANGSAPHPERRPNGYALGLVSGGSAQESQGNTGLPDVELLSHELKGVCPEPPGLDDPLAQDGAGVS
Somatostatin receptor type 4, sequence (P31391 whole entry): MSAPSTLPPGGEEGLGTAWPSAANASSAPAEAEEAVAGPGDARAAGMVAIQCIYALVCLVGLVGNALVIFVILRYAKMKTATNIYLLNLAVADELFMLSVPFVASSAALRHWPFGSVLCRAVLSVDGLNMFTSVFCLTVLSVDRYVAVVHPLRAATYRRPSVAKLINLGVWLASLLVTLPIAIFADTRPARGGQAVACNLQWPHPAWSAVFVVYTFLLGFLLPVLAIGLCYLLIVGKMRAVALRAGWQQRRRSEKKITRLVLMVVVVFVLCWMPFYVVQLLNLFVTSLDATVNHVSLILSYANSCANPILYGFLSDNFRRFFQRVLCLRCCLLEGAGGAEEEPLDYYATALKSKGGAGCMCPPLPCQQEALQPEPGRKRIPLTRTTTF
Cannabinoid receptor 1, sequence (P21554 whole entry): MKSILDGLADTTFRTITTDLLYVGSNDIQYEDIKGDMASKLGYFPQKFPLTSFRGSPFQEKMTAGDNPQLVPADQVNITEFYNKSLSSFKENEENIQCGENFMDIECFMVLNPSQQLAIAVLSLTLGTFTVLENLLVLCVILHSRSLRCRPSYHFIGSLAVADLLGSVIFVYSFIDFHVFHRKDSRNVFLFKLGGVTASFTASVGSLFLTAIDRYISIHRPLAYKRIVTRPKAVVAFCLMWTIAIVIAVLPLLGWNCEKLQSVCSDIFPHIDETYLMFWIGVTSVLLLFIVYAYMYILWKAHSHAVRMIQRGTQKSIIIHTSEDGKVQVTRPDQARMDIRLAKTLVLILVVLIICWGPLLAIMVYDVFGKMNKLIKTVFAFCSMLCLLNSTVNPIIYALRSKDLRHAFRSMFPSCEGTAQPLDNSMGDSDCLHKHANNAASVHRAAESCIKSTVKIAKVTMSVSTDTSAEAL
Cannabinoid receptor 2, sequence (P34972 whole entry): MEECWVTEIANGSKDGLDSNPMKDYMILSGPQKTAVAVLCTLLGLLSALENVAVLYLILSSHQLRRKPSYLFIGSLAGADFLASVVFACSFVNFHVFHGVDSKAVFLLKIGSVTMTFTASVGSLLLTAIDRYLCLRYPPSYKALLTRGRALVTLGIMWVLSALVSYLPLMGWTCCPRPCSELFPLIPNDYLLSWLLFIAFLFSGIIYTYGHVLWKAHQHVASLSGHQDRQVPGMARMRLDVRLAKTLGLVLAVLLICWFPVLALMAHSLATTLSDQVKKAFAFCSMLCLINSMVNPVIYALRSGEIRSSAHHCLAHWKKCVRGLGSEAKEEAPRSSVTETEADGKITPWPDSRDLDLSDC
Somatostatin receptor type 2, sequence (P30874 whole entry): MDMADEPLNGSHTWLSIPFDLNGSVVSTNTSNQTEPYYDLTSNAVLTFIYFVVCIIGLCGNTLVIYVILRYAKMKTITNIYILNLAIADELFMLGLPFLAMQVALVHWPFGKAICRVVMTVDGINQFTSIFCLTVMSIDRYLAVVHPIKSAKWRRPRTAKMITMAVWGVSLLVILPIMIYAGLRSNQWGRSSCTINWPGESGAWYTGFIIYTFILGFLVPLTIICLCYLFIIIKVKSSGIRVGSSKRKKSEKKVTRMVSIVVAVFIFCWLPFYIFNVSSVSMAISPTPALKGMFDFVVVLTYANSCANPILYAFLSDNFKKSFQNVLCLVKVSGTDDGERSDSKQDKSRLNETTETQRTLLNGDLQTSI

CC(C)C[C@H](CN)CC(=O)O [PREGABALIN]
Time [1]: 120 min
inhibition [2]: Active

COc1ccc2c(c1)c(CC(=O)O)c(C)n2C(=O)c1ccc(Cl)cc1 [INDOMETHACIN]
AUC(0-inf) [3]: 97.1 µg·h/mL
Activity [4]: Toxic
Activity [5]: Active
half-life [6]: 5.99 h
Cmax [7]: 10.4 µg/mL
Time [8]: 60 min
Activity [9]: Active
AUC(0-t) [10]: 93.8 µg·h/mL
k el [11]: 3.33e-05 s⁻¹
Tmax [12]: 0.75 h

CN1CCc2c(c3cccc4c3n2CCc2ccccc2-4)C1
Ki [13]: > 10 µM
Ki [14]: > 10 µM
Ki [15]: Not Active
Ki [16]: > 10 µM
Ki [17]: > 10 µM
Activity [18]: 0.41 g
Activity [19]: Active
Activity [20]: 0.21 g
Activity [21]: 0.75 g
Activity [22]: 50.8%
Activity [23]: 35.2%
Ki [24]: > 10 µM
AUC(0-t) [25]: 0.211 µg·h/mL
Activity [26]: 0.57 g
Activity [27]: Non-toxic
Ki [28]: 0.312 µM
inhibition in vivo at 39 mg/kg [29]: 50%
Time [30]: 30 min
Tmax [31]: 0.25 h
Activity [32]: 0.4 g
AUC(0-inf) [33]: 0.216 µg·h/mL
Activity [34]: 0.88 g
Ki [35]: > 10 µM
Time [36]: 60 min
Ki [37]: > 10 µM
Ki [38]: > 10 µM
Ki [39]: > 10 µM
half-life [40]: 1.86 h
fold change (FC) [41]: 7
Ki [42]: > 10 µM
Activity [43]: 0.67 g
Activity [44]: 1.09 g
Cmax [45]: 0.126 µg/mL
fold change (FC) [46]: 5
Activity [47]: 0.86 g
Activity [48]: 90%
k el [49]: 0.000103 s⁻¹
Activity [50]: 0.21 g
